Article PMC11901700, “A Sweet Almond Globulin Multifunctional Peptide: Identification, In Silico Screening, Restraint Mechanisms to Keap1 and ACE, and Antihypertensive and Ferrous Transport Efficiency” (Nutrients, 2025)
Where “and” joins values, the source holds several entries; their conditions need not be identical. Identical values can stand only once. Like-named read-outs stand apart in the source and are kept apart here. One block for each compound: values may come before it. Where no end group is shown, it is not given here.

Tests used:
[1] = ABTS+ quenching ability; type: physicochemical; settings: at 100 μg/mL; absorbance at 734 nm; mean ± standard error
Description: The ABTS^+ quenching ability was determined following the same procedures described by Vásquez et al.. The same system without the sample was the control, and glutathione (0.1 mg/mL) was the comparison. The percentage of reduction in absorbance at 734 nm was defined as the ABTS^+ scavenging ability of samples.

[2] = Hydroxyl radical scavenging activity (β-deoxyribose oxidation method); type: physicochemical; settings: at 100 μg/mL
Description: (§1) As described by Wang et al. and Vásquez et al., the hydroxyl (·OH) and superoxide ( O2−· ) radicals’ scavenging activity was measured using the β-deoxyribose oxidation and pyrogallol auto-oxidation methods, respectively. The comparison was conducted when the samples were replaced by glutathione (0.1 mg/mL).

[3] = Superoxide radical scavenging activity (pyrogallol auto-oxidation method); type: physicochemical; settings: at 100 μg/mL
Description: as §1

[4] = Reducing power (potassium ferricyanide method); type: physicochemical; settings: at 100 μg/mL; absorbance at 700 nm
Description: The potassium ferricyanide method was employed to determine the reducing power of the SAGH peptides at the same conditions reported by Wang et al., where the absorbance at 700 nm represented the reducing power.

[5] = Gastrointestinal stability of peptide–ferrous chelate (ferrous solubility in simulated digestion); type: in vitro ADME
Description: Next, the intestinal digestive fluid was added, and digestion was continued at pH 6.8 for 2 h in the EDZF-C002 thermostatic vibrator ([…], 175 rpm).

[6] = biological target: T1, ACE (from rabbit lungs) (Oryctolagus cuniculus, UniProt P12822); set-up: method as in 3 sources, ref 29 = [29]; doi:10.1111/j.1365-2621.2001.tb04614.x; 29. Nielsen P.M. Petersen D. Dambmann C. Improved method for determining food protein degree of hydrolysis J. Food Sci. 2001 66 642 646 10.1111/j.1365-2621.2001.tb04614.x ||| ref 43 = [43]; PMID 38470110; doi:10.1021/acs.jafc.4c00829; 43. Martineau-Côté D. Achouri A. Karboune S. L’Hocine L. Antioxidant and Angiotensin-Converting Enzyme Inhibitory Activity of Faba Bean-Derived Peptides After In Vitro Gastrointestinal Digestion: Insi ||| ref 10 = [10]; PMID 36493485; doi:10.1016/j.foodchem.2022.135082; 10. Fadimu G.J. Gan C.Y. Olalere Q.A. Farahnaky A. Gill H. Truong T. Novel antihypertensive peptides from lupin protein hydrolysate: An in-silico identification and molecular docking studies Food Chem; settings: read-out: ACE inhibition IC50 (literature), cited from earlier work
T1 construct: ACE (0.1 U, from rabbit lungs, purity > 99.7%, CAS: 9015-82-1) was obtained from Sigma-Aldrich; purchased Sigma-Aldrich (St. Louis, MO, USA); host or cells: rabbit lung tissue
T1 sequence (P12822 34-1310): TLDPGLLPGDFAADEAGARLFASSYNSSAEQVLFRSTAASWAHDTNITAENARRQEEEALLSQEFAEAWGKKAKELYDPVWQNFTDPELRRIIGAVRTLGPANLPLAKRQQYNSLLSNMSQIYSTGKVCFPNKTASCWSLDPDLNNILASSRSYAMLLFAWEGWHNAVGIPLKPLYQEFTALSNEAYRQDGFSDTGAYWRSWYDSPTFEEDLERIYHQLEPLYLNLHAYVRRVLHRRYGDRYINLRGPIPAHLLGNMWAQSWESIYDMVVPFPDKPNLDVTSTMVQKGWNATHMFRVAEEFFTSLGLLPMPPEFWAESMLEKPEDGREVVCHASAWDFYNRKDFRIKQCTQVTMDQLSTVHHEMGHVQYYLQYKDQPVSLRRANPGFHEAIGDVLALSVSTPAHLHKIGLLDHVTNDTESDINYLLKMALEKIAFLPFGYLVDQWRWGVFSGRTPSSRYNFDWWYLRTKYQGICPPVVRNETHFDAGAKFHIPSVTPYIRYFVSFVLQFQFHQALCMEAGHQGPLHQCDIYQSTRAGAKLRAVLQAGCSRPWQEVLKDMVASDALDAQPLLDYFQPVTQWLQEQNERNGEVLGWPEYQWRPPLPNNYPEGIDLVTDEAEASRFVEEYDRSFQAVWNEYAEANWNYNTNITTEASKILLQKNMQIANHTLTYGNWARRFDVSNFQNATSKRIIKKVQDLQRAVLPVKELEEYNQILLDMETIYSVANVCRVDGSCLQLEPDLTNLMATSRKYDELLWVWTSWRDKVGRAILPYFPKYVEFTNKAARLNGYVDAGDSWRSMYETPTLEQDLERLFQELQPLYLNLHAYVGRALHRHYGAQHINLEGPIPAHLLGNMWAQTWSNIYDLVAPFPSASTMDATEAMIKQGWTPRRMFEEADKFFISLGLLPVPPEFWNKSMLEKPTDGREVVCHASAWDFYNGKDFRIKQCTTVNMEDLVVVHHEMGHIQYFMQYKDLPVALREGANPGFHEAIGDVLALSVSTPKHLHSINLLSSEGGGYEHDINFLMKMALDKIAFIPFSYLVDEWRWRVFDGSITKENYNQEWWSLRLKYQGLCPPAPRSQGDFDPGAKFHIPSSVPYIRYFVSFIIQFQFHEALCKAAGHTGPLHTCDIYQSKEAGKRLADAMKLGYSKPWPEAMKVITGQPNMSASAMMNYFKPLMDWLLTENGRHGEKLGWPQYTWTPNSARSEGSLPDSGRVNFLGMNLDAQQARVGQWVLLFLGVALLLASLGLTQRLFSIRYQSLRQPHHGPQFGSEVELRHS

[7] = assay not specified, cited from earlier work
Description: Alternatively, the guanidine of Arg, imidazolyl in His, the free hydroxyl group of Ser, the cyclic amino group of Pro, and the phenolic hydroxyl group of Tyr can quickly quench free radicals, showing excellent antioxidant ability. Moreover, the sulfhydryl group in Cys or Met can inhibit free radicals’ chain reaction by chelating metal ions, which are catalysts for oxidation reactions. Therefore, the residues, including Tyr, Pro, Val, and Met, were responsible for the antioxidant activity of […]. Furthermore, the repeated amino acid sequences “GGG” can enhance the antioxidant ...

[8] = cited from earlier work
Description: The ACE inhibition and antioxidant activities of […] were stable during gastrointestinal digestion (Figure 3A and Table 2), which is mainly ascribed to the Pro, Val, and Met residues. […] Therefore, the Pro and Val residues of […] were mainly responsible for its gastrointestinal stability. Peptides rich in Pro and br ...

[9] = biological target: T1, ACE (from rabbit lungs); assay: ACE inhibitory ability (hippuric acid method); type: biochemical; settings: N = 3
Description: The hippuric acid method was used to measure the samples’ inhibitory ability towards ACE, following the same procedures as Zheng et al.. The absorbance at 228 nm was the hippuric acid content and represented ACE activity; therefore, the inhibitory ability of samples towards ACE was defined as the percentage of reduction in the absorption at 228 nm between the control and sample groups. Moreover, the ACE inhibitory kinetic of SAGH peptides was investigated by employing a Lineweaver–Burk plot with N-hippuryl-L-histidyl-L-leucine (HHL, 0.13–1.32 mmol/L) as the substrate.
(§2) As described by Wu et al., the simulative gastric digestive fluid consisted of sodium chloride (0.18 mol/L), ultrapure water (180 mL), and 0.40 mg/mL of pepsin. The simulation intestinal digestive juice was composed of NaHCO3, ([…]), bile salt (3 g/100 mL), pancreatin (0.35 mg/mL), and 180 mL of ultrapure water. The antihypertensive and antioxidant SAGH peptides (5 mg/mL, 60 mL) were first hydrolyzed using 150 mL of simulative gastric fluid at 37 °C and 140 rpm for 90 min. The mixture was adjusted to pH 7.0, and 180 mL of the simulative intestinal hydrolysis fluid was added and stirred at 37 °C for 2 h. After boiling for 6 min, the mixture was cooled with running water to room temperature. The ACE inhibition capacity and antioxidant ability of the treated SAGH peptides were detected and compared to those of the […] SAGH peptides.

[10] = Gastrointestinal stability of SAGH peptide (simulated gastric and intestinal digestion); type: in vitro ADME; settings: peptide 5 mg/mL; simulated gastric fluid (pepsin 0.40 mg/mL) 37 °C, 140 rpm, 90 min, then pH 7.0 intestinal fluid (pancreatin 0.35 mg/mL, bile salt 3 g/100 mL) 37 °C 2 h; read-out activity
Description: as §2

[11] = Ferrous ion binding capacity (o-phenanthroline method); type: physicochemical; settings: decrease in ferrous concentration per sample concentration, mean ± standard error, at least three tests
Description: The ferrous ion binding capacity was determined using the o-phenanthroline method following the same procedures described by Xu et al.. By plugging the absorbance value into the equation of A = 0.3719C + 0.0002 [36], the ferrous ion concentration (C) can be calculated. The ferrous ion binding capacity (mg/g) was defined as the decrease in ferrous concentration of the reaction solution per sample concentration.

Compound: N[C@@H](CCC(=O)N[C@@H](CS)C(=O)NCC(=O)O)C(=O)O [Glutathione, glutathione, reference compound]
ABTS+ Scavenging Activity (%) Before Gastrointestinal Digestion [1]: 79.25 ± 1.67 b %
·OH Scavenging Activity (%) Before Gastrointestinal Digestion [2]: 95.56 ± 1.38 a,b %
Superoxide Radical Scavenging Ability (%) Before Gastrointestinal Digestion [3]: 90.52 ± 4.97 a %
Reducing Power Before Gastrointestinal Digestion [4]: 0.675 ± 0.019 a

ferrous solubility during gastric digestion ([5]; 0–90 min, simulated gastric fluid pH 1.9, 37 °C, 175 rpm, soluble ferrous by o-phenanthroline every 30 min, N = 3): relatively stable
ferrous solubility during intestinal digestion ([5]; 91–240 min, intestinal digestive fluid pH 6.8, soluble ferrous by o-phenanthroline, p < 0.05): apparently decreased
Compound: [Cl][Fe][Cl] [ferrous chloride, reference compound]

Compound: GCHHY
IC50 ([6]; peptide from millet bran glutelin-2): 147 µM

Compound: LPSYVN [literature antioxidant peptide from apricot]
antioxidant activity (literature) ([7]; peptides from apricot): excellent antioxidant activity

Compound: PIIAKMY [literature peptide from millet glutelin-2]
gastrointestinal stability (literature) ([8]; peptide from millet glutelin-2): good gastrointestinal stability

IC50 ([9]; hippuric acid method, HHL substrate, absorbance at 228 nm, read-out: ACE inhibitory activity (IC50)): 121 µM
IC50 ([9]; peptide 5 mg/mL, simulated gastric fluid (pepsin 0.40 mg/mL) 37 °C 90 min, then intestinal fluid (pancreatin 0.35 mg/mL, bile salt) pH 7.0, 37 °C 2 h, read-out: ACE inhibitory activity (IC50) after simulated gastrointestinal digestion): 130 µM
stability of ACE inhibition and antioxidant activities during gastrointestinal digestion [10]: stable
Compound: PMYGGGMV

Compound: SGGEEAAAGP [oligopeptide identified in SAGH-D]
Ferrous chelating capacity [11]: 18.22 mg/g and 16.14 ± 0.43 g mg/g

Compound: SPAIPLP [literature antioxidant peptide from broad bean]
antioxidant activity (literature) ([7]; peptides from broad bean): excellent antioxidant activity

Compound: VIPTEPPHA [literature peptide from Faba beans]
IC50 ([6]; peptide from Faba beans): 260 µM
gastrointestinal stability (literature) ([8]; peptide from Faba beans): good gastrointestinal stability

Compound: VSRRFIYYL [literature antioxidant peptide from broad bean]
antioxidant activity (literature) ([7]; peptides from broad bean): excellent antioxidant activity

Compound: YLSF [literature antioxidant peptide from apricot]
antioxidant activity (literature) ([7]; peptides from apricot): excellent antioxidant activity
